Test results from ChEMBL document CHEMBL4052709, “Novel analogs of N-acylhydroxyethylaminomethyl-4H-chromen-4-one scaffold as IL-5 inhibitors” (Bioorg Med Chem, 2017).

biological target: T1, Interleukin-5 (Mus musculus) (UniProt P04401); experiment: Inhibition of IL-5 in mouse Y16 cells assessed as reduction in cell proliferation at 50 uM after 48 hrs by WST-1 assay relative to control; format: cell-based
T1 sequence (whole entry): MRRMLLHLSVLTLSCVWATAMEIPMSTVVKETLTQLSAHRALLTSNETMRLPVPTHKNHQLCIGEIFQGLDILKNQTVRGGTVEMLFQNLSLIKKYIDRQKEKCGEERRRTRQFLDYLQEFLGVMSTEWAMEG

Row | SMILES | inhibition
1 | O=c1c(-c2ccc(O[C@H]3O[C@@H](CO)[C@H](O)[C@@H](O)[C@@H]3O)cc2)coc2cc(O)cc(O)c12 | 79.1%

biological target: T1, Interleukin-5 (Mus musculus); experiment: Inhibition of IL-5 in mouse Y16 cells assessed as reduction in cell proliferation at 30 uM after 48 hrs by WST-1 assay relative to control; format: cell-based

Row | SMILES | inhibition
2 | CCC(=O)N(CCO)Cc1coc2cccc(OCC3CCCCC3)c2c1=O | 63%
3 | CC(C)(C)CCOc1cccc2occ(CN(CCO)C(=O)Oc3ccccc3)c(=O)c12 | 36%
4 | CCCNC(=O)N(CCO)Cc1coc2cccc(OCC3CCCCC3)c2c1=O | 15%
5 | CC(C)CCOc1cccc2occ(CN(CCO)C(=O)Cc3ccccc3)c(=O)c12 | 37%
6 | O=C(NCCCc1ccccc1)N(CCO)Cc1coc2cccc(OCC3CCCCC3)c2c1=O | 95%
7 | CCOC(=O)N(CCO)Cc1coc2cccc(OCC3CCCCC3)c2c1=O | 89%
8 | CC(C)(C)CCOc1cccc2occ(CN(CCO)C(=O)Nc3ccccc3)c(=O)c12 | 47%
9 | CC(C)NC(=O)N(CCO)Cc1coc2cccc(OCC3CCCCC3)c2c1=O | 6%
10 | CCCC(=O)N(CCO)Cc1coc2cccc(OCC3CCCCC3)c2c1=O | 61%
11 | O=C(Nc1ccc(Cl)cc1)N(CCO)Cc1coc2cccc(OCC3CCCCC3)c2c1=O | 4%
12 | O=C(Nc1ccccc1)N(CCO)Cc1coc2cccc(OCC3CCCCC3)c2c1=O | 61%
13 | CC(C)(C)CCOc1cccc2occ(CN(CCO)C(=O)Cc3ccccc3)c(=O)c12 | 46%

Now from value to compound:

Row | inhibition | SMILES
14 | 85% | O=C(NC1CCCCC1)N(CCO)Cc1coc2cccc(OCC3CCCCC3)c2c1=O
15 | 35% | CC(C)CCOc1cccc2occ(CN(CCO)C(=O)Nc3ccccc3)c(=O)c12
16 | 80% | COc1ccc(NC(=O)N(CCO)Cc2coc3cccc(OCC4CCCCC4)c3c2=O)cc1
17 | 95% | O=C(Cc1ccccc1)N(CCO)Cc1coc2cccc(OCC3CCCCC3)c2c1=O
18 | 95% | O=C(NCc1ccccc1)N(CCO)Cc1coc2cccc(OCC3CCCCC3)c2c1=O
19 | 7% | CCNC(=O)N(CCO)Cc1coc2cccc(OCC3CCCCC3)c2c1=O
20 | 92% | COc1ccc(CC(=O)N(CCO)Cc2coc3cccc(OCC4CCCCC4)c3c2=O)cc1
21 | 42% | CC(C)CCOc1cccc2occ(CN(CCO)C(=O)Oc3ccccc3)c(=O)c12
22 | 84% | O=C(Oc1ccccc1)N(CCO)Cc1coc2cccc(OCC3CCCCC3)c2c1=O
